Source: patent publication US20260008862A1, “Bispecific Anti-BCMA x Anti-CD3 Antibodies and Uses Thereof” (Regeneron Pharmaceuticals, Inc., priority 2018, published 2026)

Columns and labels:
[1] = tested on: Jurkat/NFATLuc.3C7 cells + OPM-2 cells; assay: Jurkat/NFATLuc reporter bioassay with OPM-2 cells; assay type: cell-based; conditions: highest RLU / lowest RLU
Procedure: Activity of the anti-BCMA×anti-CD3 bispecific antibodies were assessed in a Jurkat/NFATLuc reporter bioassay utilizing several cell lines with varying levels of BCMA surface expression. The Jurkat cells were engineered to express an NFAT-luciferase reporter (Jurkat/NFATLuc.3C7), and 50,000 Jurkat reporter cells were combined with 50,000 BCMA positive (Daudi, MM1-S, NCI-H929, OPM-2, RPMI-8226, MOLP-8, or Raji) or BCMA negative (HEK293) cells in Thermo Nunclon delta 96 well white microwell plates (Thermo Scientific, Cat #136102) in 50 ul of assay media (RPMI media with 10% FBS and 1% P/S/G). Three-fold serial dilutions of the BCMA×CD3 bispecific antibodies (mAb25441 D or mAb25442D), or a bivalent anti-BCMA antibody (mAb21581) were immediately added in 50 μL of assay buffer. The plates were gently agitated and incubated in a 37° C., 5% CO2 incubator for 4-6 hours. NFAT-Luciferase activity was determined using Promega One-Glo (Cat #E6130) and a Perkin Elmer Envision plate reader. RLU were plotted in GraphPad Prism using a four-parameter logistic equation over a 12-point response curve to calculate EC50 values. […] The signal to noise (S:N) is determined by taking the ratio of the highest RLU on the curve to the lowest.

[2] = tested on: BCMA+ MOLP-8-luciferase tumors; assay: MOLP-8-luciferase intravenous xenogenic tumor model, BLI (Example 14); assay type: in vivo, mouse; conditions: 4 mg/kg on days 0, 3 and 7
Procedure: To determine the in vivo efficacy of anti-BCMA×anti-CD3 bispecific antibodies (Abs), a xenogenic tumor study was performed. On day −11, immunodeficient NOD.Cg-Prkdc^scidIl2rg^tm1Wji/SzJ (NSG) mice were intraperitoneally injected with 4×10^6 human peripheral blood mononuclear cells (PBMC) from a normal, healthy donor. On day 0, the mice were intravenously administered 2×10^6 BCMA^+ MOLP-8 human multiple myeloma tumor cells that were engineered to also express firefly luciferase (MOLP-8-luciferase cells). […] The mice were administered these Abs twice more on days 3 and 7, for a total of three doses. Tumor growth was assessed over 48 days by measuring tumor bioluminescence (BLI) in anesthetized animals. As a positive control, a group of mice (n=5) was given only MOLP-8-luciferase cells, but not PBMC or antibody.
Implantation and measurement of xenogenic tumors: On day −11, immunodeficient NOD.Cg-Prkdc^scidIl2rg^tm1Wji/SzJ (NSG) mice were intraperitoneally injected with 5×10^6 human PBMC from a normal, healthy donor. […] Tumor growth was assessed over 48 days by measuring tumor BLI in anesthetized animals. […]
Measurement of xenogenic tumor growth: BLI imaging was used to measure tumor burden. […] Image acquisition was carried out with the field of view at D, subject height of 1.5 cm, and medium binning level with automatic exposure time determined by the Living Image Software. […]

[3] = tested on: MC38/BCMA tumors; assay: Syngenic MC38/BCMA tumor model in CD3-humanized mice (Example 16); assay type: in vivo, mouse
Procedure: To determine the in vivo efficacy of anti-BCMA×anti-CD3 bispecific antibodies (Abs), a syngenic tumor study was performed in mice expressing human CD3. C57BL/6 mice that express human CD3deg in place of murine CD3deg (CD3-humanized mice) were subcutaneously implanted with either 0.5×10^6 B16 melanoma cells that have been engineered to express full-length human BCMA (B16/BCMA cells) or 1×10^6 MC38 colon carcinoma cells that have been engineered to express full-length human BCMA (MC38/BCMA). […] The mice were administered these Abs twice more on days 4 and 7 for a total of three doses, and tumor growth was assessed throughout the experiment.
Implantation and measurement of syngenic tumors: C57BL/6 mice that express human CD3deg in place of murine CD3deg (CD3-humanized mice) were subcutaneously implanted with either 0.5×10^6 B16F10 melanoma cells that have been engineered to express full-length human BCMA (B16/BCMA cells) or 1×10^6 MC38 colon carcinoma cells that have been engineered to express full-length human BCMA (MC38/BCMA). […] The mice were administered these Abs twice more on days 4 and 7 for a total of three doses, and tumor growth was assessed throughout the experiment.
Calculation of syngenic tumor growth and inhibition: In order to determine tumor volume by external caliper, the greatest longitudinal diameter (length in mm) and the greatest transverse diameter (width in mm) were determined. Tumor volumes based on caliper measurements were calculated by the formula: Volume (mm^3)=(length×width^2)/2.

[4] = tested on: monkey BCMA-MMH; assay: SPR (Biacore 4000) binding kinetics to monkey BCMA-MMH; conditions: 25° C.
Procedure: (§1) The CM5 Biacore sensor surface was derivatized by amine coupling with a monoclonal mouse anti-human Fc antibody (GE, #BR-11008-39) to capture purified anti-BCMA mAbs and anti-BCMA×anti-CD3 bispecific mAbs. All Biacore binding studies were performed in a buffer composed of 0.01 M HEPES pH 7.4, 0.15M NaCl, 3 mM EDTA, 0.05% v/v Surfactant P20 (HBS-ET running buffer). […] Antigen samples were then injected over the anti-BCMA and anti-BCMA×anti-CD3 bispecific mAbs captured surfaces at a flow rate of 30 μL/minute. Antibody-reagent association was monitored for 5 minutes while dissociation in HBS-ET running buffer was monitored for 10 minutes. All of the binding kinetics experiments were performed at 25° C. Kinetic association (ka) and dissociation (kd) rate constants were determined by fitting the real-time sensorgrams to a 1:1 binding model using Scrubber 2.0c curve fitting software. Binding dissociation equilibrium constants (KD) and dissociative half-lives (t½) were calculated from the kinetic rate constants as: […]

[5] = tested on: monkey BCMA-MFC; assay: SPR (Biacore 4000) binding kinetics to monkey BCMA-MFC; conditions: 25° C.
Procedure: as §1

[6] = target: T1, human BCMA-MMH (Homo sapiens, UniProt Q02223); assay: SPR (Biacore 4000) binding kinetics to human BCMA-MMH; conditions: 25° C.
T1 construct: (human BCMA-MMH); myc-myc-hexahistidine (C); made in house
Procedure: as §1

Chain of monkey BCMA-MFC (as listed by the source): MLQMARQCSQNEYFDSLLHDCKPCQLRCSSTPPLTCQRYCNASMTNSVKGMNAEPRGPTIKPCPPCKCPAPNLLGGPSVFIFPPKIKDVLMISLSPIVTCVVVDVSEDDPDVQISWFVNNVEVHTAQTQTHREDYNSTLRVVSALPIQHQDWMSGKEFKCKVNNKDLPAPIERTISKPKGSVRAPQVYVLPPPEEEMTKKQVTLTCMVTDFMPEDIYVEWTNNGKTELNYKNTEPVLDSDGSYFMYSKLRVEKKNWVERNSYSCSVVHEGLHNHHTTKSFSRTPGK
T1 sequence (Q02223 with tags, fused parts or gaps): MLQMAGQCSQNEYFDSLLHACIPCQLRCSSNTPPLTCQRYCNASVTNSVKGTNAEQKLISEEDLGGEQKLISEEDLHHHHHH
Chain of monkey BCMA-MMH (as listed by the source): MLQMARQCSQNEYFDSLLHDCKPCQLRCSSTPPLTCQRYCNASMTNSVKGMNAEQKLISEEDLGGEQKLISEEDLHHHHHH

Substance	S:N [1]	tumor growth (in words) [2]	Average Tumor Size (mm3) ± SEM on Day 5 ([3]; MC38/BCMA Tumor, 0.04 mg/kg, Day 5) [mm3]	Average Tumor Size (mm3) ± SEM on Day 10 ([3]; MC38/BCMA Tumor, 0.04 mg/kg) [mm3]	Average Tumor Size (mm3) ± SEM on Day 14 ([3]; MC38/BCMA Tumor, 0.04 mg/kg) [mm3]	Average Tumor Size (mm3) ± SEM on Day 18 ([3]; MC38/BCMA Tumor, 0.04 mg/kg) [mm3]	Average Tumor Size (mm3) ± SEM on Day 10 ([3]; MC38/BCMA Tumor, 0.4 mg/kg) [mm3]	Average Tumor Size (mm3) ± SEM on Day 14 ([3]; MC38/BCMA Tumor, 0.4 mg/kg) [mm3]	Average Tumor Size (mm3) ± SEM on Day 18 ([3]; MC38/BCMA Tumor, 0.4 mg/kg) [mm3]	tumor growth (in words) ([3]; MC38/BCMA, 0.4 or 0.04 mg/kg, three doses)	ka [4] [M⁻¹ s⁻¹]	kd [4] [s⁻¹]	ka [5] [M⁻¹ s⁻¹]	kd [5] [s⁻¹]	ka [6] [M⁻¹ s⁻¹]	kd [6] [s⁻¹]
REGN5458: anti-BCMA×anti-CD3 bispecific antibody: BCMA HCVR of mAb21581 (SEQ 66), CD3 HCVR of mAb7221G (SEQ 90), common LCVR SEQ 82	8	delayed the growth	11.9 ± 2.9	66.7 ± 22.5	273.3 ± 115.3	641.5 ± 309.8	0.0 ± 0.0	2.9 ± 2.9	7.5 ± 7.5	suppress the growth of both tumor lines in a dose-dependent manner						
REGN5459: anti-BCMA×anti-CD3 bispecific antibody: BCMA HCVR of mAb21581 (SEQ 66), CD3 HCVR of mAb7221G20 (SEQ 98), common LCVR SEQ 82											223000	0.00864	482000	7.15e-05	730000	0.00101
